Counter-ions that a name gives are not always drawn.
What was measured:
Format in all cases: physicochemical
[1] = Thermodynamic stability of polymorphic forms; details: form B compared with form A; hydrochloride
[2] = Solubility in organic solvents; details: room temperature; become soluble when heated
Method: However, they become soluble when heated. In accordance with this conversion, the polymorph form A crystals of bicifadine hydrochloride are mixed with an organic solvent, having a boiling point of at least 50° C. to form a slurry. In carrying out this conversion any conventional organic solvent having a boiling point of at least 50° C. can be utilized. The slurry is then heated to a temperature at which said slurry is a clear solution, and this solution is cooled to a temperature of at most about 35° C., preferably between about 0° C. to about 20° C. The cooled solution is maintained at a temperature of at most about 35° C. for a period of time sufficient to allow said polymorph B to form as a pure crystalline form free from the presence of the polymorph form A. If desired, cooling can be carried out with stirring. During cooling the mixture should be monitored to allow sufficient time for crystalline polymorph B to form from the mixture.

[3] = Stability of the polymorphic form on grinding (Retsch Mixer Mill, XRPD analysis); details: Retsch Mixer Mill MM 200, stainless steel ball, 30/s, 5-minute intervals, total of 20 minutes; hydrochloride
Method: The X-ray powder diffraction (XRPD) analyses of polymorphic forms A and B of racemic bicifadine hydrochloride were performed with a Shimadzu XRD-6000 X-ray powder diffractometer using Cu Kα radiation. The bicifadine was loaded onto the machine as a crystalline powder. The instrument was equipped with a fine focus X-ray tube. The tube voltage and amperage were set to 40 kV and 40 mA, respectively. The divergence and scattering slits were set at 1° and the receiving slit was set at 0.15 mm. Diffracted radiation was detected by a NaI scintillation detector. A theta-two theta continuous scan at 3°/min (0.4 sec/0.02° step) from 2.5 to 40°2θ was used. A silicon standard was analyzed to check the instrument alignment. Data were collected and analyzed using XRD-6000 v. 4.1.
Form A bicifadine hydrochloride (207 mg) was charged to a small stainless steel cylinder. A stainless steel ball was added, the cylinder capped, and the unit shaken on a Retsch Mixer Mill (Type MM 200) at 5-minute intervals at a frequency of 30/s for a total of 20 minutes. The milled material was then removed and analyzed by XRPD.
Form B bicifadine hydrochloride (111 mg) was charged to a small stainless steel cylinder. […] The milled material was then removed and analyzed by XRPD.

solubility in organic solvents [2] | polymorphic form after grinding (XRPD) [3] | Structure (SMILES) | thermodynamic stability of crystal form [1]
poorly soluble | partial conversion to form B | Cc1ccc(C23CNCC2C3)cc1 (racemic) [Form A bicifadine hydrochloride, (±)-1-(4-methylphenyl)-3-azabicyclo[3.1.0]-hexane hydrochloride] | not the most thermodynamically stable polymorphic form
 | remained form B | Cc1ccc(C23CNCC2C3)cc1 (racemic) [Form B bicifadine hydrochloride, (±)-1-(4-methylphenyl)-3-azabicyclo[3.1.0]-hexane hydrochloride] | more thermodynamically stable

Reference: patent US7094799B2, “Polymorphs of bicifadine hydrochloride” (DOV Pharmaceutical, Inc., priority 2002, dated 2006)
